Results as given in US20020111274A1, “1-alkyl-3-[1-(substituted phenyl) benzotriazol-6-yl] uracils” (BASF Aktiengesellschaft, priority 2000, published 2002).

How the values were obtained:
Set-up in all cases: scale not given here
ABUTH Velvetleaf [1] = assay: Postemergence herbicidal evaluation, ABUTH; type: in vivo, Abutilon theophrasti, Medic.; details: postemergence spray, rated about two-three weeks after treatment
Protocol: (§1) In this evaluation, seedling plants are grown in jiffy flats for about two weeks. The test compounds are dispersed in 80/20 acetone/water mixtures containing 1.0% SUN-IT® II, a methylated seed oil, in sufficient quantities to provide the equivalent of about 0.006 kg to 0.400 kg per hectare of active compound when applied to the plants through a spray nozzle operating at 40 psi for a predetermined time. After spraying, the plants are placed on greenhouse benches and are cared for in accordance with conventional greenhouse procedures. Approximately two - three weeks after treatment, the seedling plants are examined and rated according to the rating system set forth below. Where more than one test is involved for a given compound, the data are averaged.

AMBEL Ragweed, Common [2] = assay: Postemergence herbicidal evaluation, AMBEL; type: in vivo, Ambrosia artemisifolia, L.; details: postemergence spray, rated about two-three weeks after treatment
Protocol: as §1

CASOB Sicklepod [3] = assay: Postemergence herbicidal evaluation, CASOB; type: in vivo, Cassia obtusifolia, L.; details: postemergence spray, rated about two-three weeks after treatment
Protocol: as §1

[4] = tested on: CHEAL Lambsquarters, Common; assay: Postemergence herbicidal evaluation, CHEAL; type: in vivo, Chenopodium album, L.; details: postemergence spray, rated about two-three weeks after treatment
Protocol: as §1

ECHOG Barnyardgrass [5] = assay: Postemergence herbicidal evaluation, ECHOG; type: in vivo, Echinochloa crus-galli, (L.) Beau; details: postemergence spray, rated about two-three weeks after treatment
Protocol: as §1

GALAP Galium [6] = assay: Postemergence herbicidal evaluation, GALAP; type: in vivo, Galium aparine; details: postemergence spray, rated about two-three weeks after treatment
Protocol: as §1

[7] = tested on: IPOHE Morningglory, Ivyleaf; assay: Postemergence herbicidal evaluation, IPOHE; type: in vivo, Ipomoea hederacea, (L.) Jacq.; details: postemergence spray, rated about two-three weeks after treatment
Protocol: as §1

SETVI Foxtail, Green [8] = assay: Postemergence herbicidal evaluation, SETVI; type: in vivo, Setaria viridis, (L.) Beau; details: postemergence spray, rated about two-three weeks after treatment
Protocol: as §1

GLXMAW Soybean, Williams [9] = assay: Postemergence herbicidal evaluation, GLXMAW; type: in vivo, Glycine max, (L.) Merr. cv Williams; details: postemergence spray, rated about two-three weeks after treatment
Protocol: as §1

[10] = tested on: TRZAWR Wheat, Winter, cv Riband; assay: Postemergence herbicidal evaluation, TRZAWR; type: in vivo, Triticum aestivum; details: postemergence spray, rated about two-three weeks after treatment
Protocol: as §1

ORYSAT Rice, Tebonnet [11] = assay: Postemergence herbicidal evaluation, ORYSAT; type: in vivo, Oryza sativa, (L.); details: postemergence spray, rated about two-three weeks after treatment
Protocol: as §1

ZEAMX Corn, Field [12] = assay: Postemergence herbicidal evaluation, ZEAMX; type: in vivo, Zea mays, L. (Sammel-Bezeichnung); details: postemergence spray, rated about two-three weeks after treatment
Protocol: as §1

ABUTH Velvetleaf [13] = assay: Preemergence herbicidal evaluation, ABUTH; type: in vivo, Abutilon theophrasti, Medic.; details: preemergence
From the text: (§2) The preemergence herbicidal activity of the test compounds of the present invention is exemplified by the following tests in which the seeds of a variety of monocotyledonous and dicotyledonous plants are separately mixed with potting soil and planted on top of approximately one inch of soil in separate pint cups. […] The treated cups are then placed on greenhouse benches, watered and cared for in accordance with conventional greenhouse procedures. From four to five weeks after treatment, the tests are terminated and each cup is examined and rated according to the rating system provided in Example 46.

AMBEL Ragweed, Common [14] = assay: Preemergence herbicidal evaluation, AMBEL; type: in vivo, Ambrosia artemisifolia, L.; details: preemergence
From the text: as §2

CASOB Sicklepod [15] = assay: Preemergence herbicidal evaluation, CASOB; type: in vivo, Cassia obtusifolia, L.; details: preemergence
From the text: as §2

[16] = tested on: CHEAL Lambsquarters, Common; assay: Preemergence herbicidal evaluation, CHEAL; type: in vivo, Chenopodium album, L.; details: preemergence
From the text: as §2

ECHOG Barnyardgrass [17] = assay: Preemergence herbicidal evaluation, ECHOG; type: in vivo, Echinochloa crus-galli, (L.) Beau; details: preemergence
From the text: as §2

GALAP Galium [18] = assay: Preemergence herbicidal evaluation, GALAP; type: in vivo, Galium aparine; details: preemergence
From the text: as §2

[19] = tested on: IPOHE Morningglory, Ivyleaf; assay: Preemergence herbicidal evaluation, IPOHE; type: in vivo, Ipomoea hederacea, (L.) Jacq.; details: preemergence
From the text: as §2

SETVI Foxtail, Green [20] = assay: Preemergence herbicidal evaluation, SETVI; type: in vivo, Setaria viridis, (L.) Beau; details: preemergence
From the text: as §2

GLXMAW Soybean, Williams [21] = assay: Preemergence herbicidal evaluation, GLXMAW; type: in vivo, Glycine max, (L.) Merr. cv Williams; details: preemergence
From the text: as §2

[22] = tested on: TRZAWR Wheat, Winter, cv Riband; assay: Preemergence herbicidal evaluation, TRZAWR; type: in vivo, Triticum aestivum; details: preemergence
From the text: as §2

ORYSAT Rice, Tebonnet [23] = assay: Preemergence herbicidal evaluation, ORYSAT; type: in vivo, Oryza sativa, (L.); details: preemergence
From the text: as §2

ZEAMX Corn, Field [24] = assay: Preemergence herbicidal evaluation, ZEAMX; type: in vivo, Zea mays, L. (Sammel-Bezeichnung); details: preemergence
From the text: as §2

COc1ccc(-n2nnc3cc(F)c(-n4c(=O)cc(C(F)(F)F)n(C)c4=O)cc32)cc1 [Example 27]
5.0: Postemergence herbicidal rating AMBEL (AMBEL Ragweed, Common [2]; 0.008 kg/ha) | Postemergence herbicidal rating GLXMAW (GLXMAW Soybean, Williams [9]; 0.008 kg/ha) | Postemergence herbicidal rating ZEAMX (ZEAMX Corn, Field [12]; 0.016 kg/ha) | IPOHE herbicidal rating ([19]; rate 0.125 kg/ha) | GLXMAW herbicidal rating (GLXMAW Soybean, Williams [21]; rate 0.062 kg/ha) | ORYSAT herbicidal rating (ORYSAT Rice, Tebonnet [23]; rate 0.062 kg/ha)
1.0: Postemergence herbicidal rating CASOB (CASOB Sicklepod [3]; 0.008 kg/ha) | Postemergence herbicidal rating CASOB (CASOB Sicklepod [3]; 0.016 kg/ha) | Postemergence herbicidal rating ECHCG (ECHOG Barnyardgrass [5]; 0.008 kg/ha) | Postemergence herbicidal rating ECHCG (ECHOG Barnyardgrass [5]; 0.016 kg/ha) | Postemergence herbicidal rating GALAP (GALAP Galium [6]; 0.008 kg/ha) | CASOB herbicidal rating (CASOB Sicklepod [15]; rate 0.032 kg/ha) | ECHCG herbicidal rating (ECHOG Barnyardgrass [17]; rate 0.016 kg/ha) | GALAP herbicidal rating (GALAP Galium [18]; rate 0.016 kg/ha) | IPOHE herbicidal rating ([19]; rate 0.032 kg/ha) | IPOHE herbicidal rating ([19]; rate 0.062 kg/ha) | GLXMAW herbicidal rating (GLXMAW Soybean, Williams [21]; rate 0.016 kg/ha) | GLXMAW herbicidal rating (GLXMAW Soybean, Williams [21]; rate 0.032 kg/ha) | TRZAWR herbicidal rating ([22]; rate 0.016 kg/ha) | ORYSAT herbicidal rating (ORYSAT Rice, Tebonnet [23]; rate 0.016 kg/ha)
7.0: Postemergence herbicidal rating CHEAL ([4]; 0.016 kg/ha) | Postemergence herbicidal rating SETVI (SETVI Foxtail, Green [8]; 0.008 kg/ha) | Postemergence herbicidal rating SETVI (SETVI Foxtail, Green [8]; 0.032 kg/ha) | AMBEL herbicidal rating (AMBEL Ragweed, Common [14]; rate 0.062 kg/ha) | ZEAMX herbicidal rating (ZEAMX Corn, Field [24]; rate 0.062 kg/ha) | ZEAMX herbicidal rating (ZEAMX Corn, Field [24]; rate 0.125 kg/ha)
3.0: TRZAWR herbicidal rating ([22]; rate 0.062 kg/ha)
2.5: Postemergence herbicidal rating ORYSAT (ORYSAT Rice, Tebonnet [11]; 0.008 kg/ha)
2.0: Postemergence herbicidal rating ECHCG (ECHOG Barnyardgrass [5]; 0.032 kg/ha) | Postemergence herbicidal rating TRZAWR ([10]; 0.008 kg/ha) | AMBEL herbicidal rating (AMBEL Ragweed, Common [14]; rate 0.032 kg/ha) | CASOB herbicidal rating (CASOB Sicklepod [15]; rate 0.062 kg/ha) | GALAP herbicidal rating (GALAP Galium [18]; rate 0.032 kg/ha) | TRZAWR herbicidal rating ([22]; rate 0.032 kg/ha) | TRZAWR herbicidal rating ([22]; rate 0.125 kg/ha) | ORYSAT herbicidal rating (ORYSAT Rice, Tebonnet [23]; rate 0.032 kg/ha) | ZEAMX herbicidal rating (ZEAMX Corn, Field [24]; rate 0.016 kg/ha)
4.0: Postemergence herbicidal rating CHEAL ([4]; 0.008 kg/ha) | Postemergence herbicidal rating GALAP (GALAP Galium [6]; 0.016 kg/ha) | Postemergence herbicidal rating SETVI (SETVI Foxtail, Green [8]; 0.016 kg/ha) | Postemergence herbicidal rating TRZAWR ([10]; 0.016 kg/ha) | ECHCG herbicidal rating (ECHOG Barnyardgrass [17]; rate 0.032 kg/ha) | ZEAMX herbicidal rating (ZEAMX Corn, Field [24]; rate 0.032 kg/ha)
4.5: Postemergence herbicidal rating TRZAWR ([10]; 0.032 kg/ha) | Postemergence herbicidal rating ORYSAT (ORYSAT Rice, Tebonnet [11]; 0.016 kg/ha) | Postemergence herbicidal rating ORYSAT (ORYSAT Rice, Tebonnet [11]; 0.032 kg/ha) | Postemergence herbicidal rating ZEAMX (ZEAMX Corn, Field [12]; 0.008 kg/ha)
0.0: AMBEL herbicidal rating (AMBEL Ragweed, Common [14]; rate 0.016 kg/ha) | CASOB herbicidal rating (CASOB Sicklepod [15]; rate 0.016 kg/ha) | IPOHE herbicidal rating ([19]; rate 0.016 kg/ha)
5.5: Postemergence herbicidal rating ZEAMX (ZEAMX Corn, Field [12]; 0.032 kg/ha)
6.0: Postemergence herbicidal rating CASOB (CASOB Sicklepod [3]; 0.032 kg/ha) | Postemergence herbicidal rating GLXMAW (GLXMAW Soybean, Williams [9]; 0.016 kg/ha) | Postemergence herbicidal rating GLXMAW (GLXMAW Soybean, Williams [9]; 0.032 kg/ha) | ABUTH herbicidal rating (ABUTH Velvetleaf [13]; rate 0.032 kg/ha) | ORYSAT herbicidal rating (ORYSAT Rice, Tebonnet [23]; rate 0.125 kg/ha)
9.0: Postemergence herbicidal rating ABUTH (ABUTH Velvetleaf [1]; 0.008 kg/ha) | Postemergence herbicidal rating ABUTH (ABUTH Velvetleaf [1]; 0.016 kg/ha) | Postemergence herbicidal rating ABUTH (ABUTH Velvetleaf [1]; 0.032 kg/ha) | Postemergence herbicidal rating AMBEL (AMBEL Ragweed, Common [2]; 0.016 kg/ha) | Postemergence herbicidal rating AMBEL (AMBEL Ragweed, Common [2]; 0.032 kg/ha) | Postemergence herbicidal rating CHEAL ([4]; 0.032 kg/ha) | Postemergence herbicidal rating GALAP (GALAP Galium [6]; 0.032 kg/ha) | Postemergence herbicidal rating IPOHE ([7]; 0.008 kg/ha) | Postemergence herbicidal rating IPOHE ([7]; 0.016 kg/ha) | Postemergence herbicidal rating IPOHE ([7]; 0.032 kg/ha) | ABUTH herbicidal rating (ABUTH Velvetleaf [13]; rate 0.062 kg/ha) | ABUTH herbicidal rating (ABUTH Velvetleaf [13]; rate 0.125 kg/ha) | AMBEL herbicidal rating (AMBEL Ragweed, Common [14]; rate 0.125 kg/ha) | CASOB herbicidal rating (CASOB Sicklepod [15]; rate 0.125 kg/ha) | CHEAL herbicidal rating ([16]; rate 0.016 kg/ha) | CHEAL herbicidal rating ([16]; rate 0.032 kg/ha) | CHEAL herbicidal rating ([16]; rate 0.062 kg/ha) | CHEAL herbicidal rating ([16]; rate 0.125 kg/ha) | ECHCG herbicidal rating (ECHOG Barnyardgrass [17]; rate 0.062 kg/ha) | ECHCG herbicidal rating (ECHOG Barnyardgrass [17]; rate 0.125 kg/ha) | GALAP herbicidal rating (GALAP Galium [18]; rate 0.062 kg/ha) | GALAP herbicidal rating (GALAP Galium [18]; rate 0.125 kg/ha) | SETVI herbicidal rating (SETVI Foxtail, Green [20]; rate 0.016 kg/ha) | SETVI herbicidal rating (SETVI Foxtail, Green [20]; rate 0.032 kg/ha) | SETVI herbicidal rating (SETVI Foxtail, Green [20]; rate 0.062 kg/ha) | SETVI herbicidal rating (SETVI Foxtail, Green [20]; rate 0.125 kg/ha) | GLXMAW herbicidal rating (GLXMAW Soybean, Williams [21]; rate 0.125 kg/ha)
